# Results taken from article PMC9468151, “Identification of a binding site on soluble RANKL that can be targeted to inhibit soluble RANK-RANKL interactions and treat osteoporosis” (Nature Communications, 2022).
# Where “and” joins values, the source holds several entries; their conditions need not be identical. Identical values can stand only once.
# Assays:
# NF-κB = test: Reporter-gene assay for NF-κB; format: cell-based, mouse; set-up: NF-κB luciferase expression (fig. 6c): unit not given here; details: for NF-κB luciferase expression (fig. 6c): sRANKL stimulated; for reporter signal (fig. S3h): three replicates
# Experimental: In order to investigate the NF-κB and NFAT transcriptional inhibition activity of selective sRANKL inhibitor, luciferase reporter gene assays were used[57]. RAW 264.7 cells stably transfected with an NF-κB luciferase reporter gene (3κB-Luc-SV40) or NFAT luciferase reporter gene were seeded into 96-well plates at a density of 1.5 × 10^5 or 1.0 × 10^5 cell per well respectively for 24 h. Cells were pretreated with compounds for 1 h, and then stimulated with sRANKL (100 ng/mL), TNF-ɑ (20 ng/mL), […] (50 ng/mL) and LPS (500 ng/mL) for 6 h for NF-κB transcriptional or 24 h for NFAT transcriptional. After treatment both cells were lysed and measured luciferase activity using a Promega Luciferase Assay system (Promega Corporation) by a Varioskan flash Multimode Microplate Reader (Thermo Scientific).
# [1] = tested on: WT sRANKL or Q238A sRANKL induced osteoclast formation; test: Rescue experiment: osteoclast formation induced by WT or Q238A sRANKL; format: cell-based, mouse
# Experimental: (§1) For the osteoclast formation induced by WT and Q238A sRANKL experiments, BMMs were seeded in 96-well plate in density of 6 × 10^3 cell/ well with α-MEM completed medium containing 10 ng/mL M-CSF for 24 h. Then the cells were treated with 0 μM, 0.3 μM, 3 μM and 10 μM and stimulated with 100 ng/mLWT sRANKL or Q238A sRANKL respectively. For the osteoclast formation induced by WT, W194A, and H226A sRANKL experiments, cells were stimulated with 100 ng/mL WT sRANKL combined W194A, H226A sRANKL in different concentrations (50 ng/mL, 200 ng/mL, and 400 ng/mL) with or without 10 μM S3-15. After 5 days, osteoclasts were formed, and applied TRAP-staining as described above. TRAP-positive multinucleated cells with > 3 nuclei were scored as osteoclasts.
# [2] = tested on: WT sRANKL induced osteoclast formation with H226A/W194A sRANKL; test: Rescue experiment: WT sRANKL combined with W194A or H226A sRANKL; format: cell-based, mouse; set-up: osteoclast formation (fig. S4b): unit not given here; details: S3-15 10 μM; for OC numbers: 100 ng/mL WT sRANKL
# Experimental: as §1
# OVX mice [3] = test: Three-point bending test of femur (biomechanical strength); format: in vivo, mouse; details: OVX mice + S3-15, individual animals
# Experimental: The weight of rats or mice were recorded every week in the treatment period. After treatment, the rats were harvested, the serum, heart, liver, spleen, lung, kidney, thymus, and femurs were all collected and subjected to subsequent analysis. The right femurs of rats or mice were cleaned excess soft tissue, fixed in 10% formalin, and processed them for microcomputed tomography (micro-CT) analysis. Left mice femurs were collected and excarnate for biomechanical strength testing. Mice peripheral blood were as well as collected for flow cytometry analyzing.
# OVX rats = test: Serum biochemical markers determination; format: in vivo, rat; set-up: TG / ALT / AST / ALP / GLU / TC / Ca / TBA / TBIL / BUN / CREA: unit not given here
# Text: After treating with S3-15 for 12 weeks, rat serum was harvested and analyzed routine blood biochemical markers, including calcium (Ca), phosphorus (P), total cholesterol (TC), triglyceride (TG), glucose (Glu), aspartate aminotransferase (AST), alanine aminotransferase (ALT), alkaline phosphatase (ALP), total bile acid (TBIL), total bilirubin (TBA), creatinine (CREA), urea nitrogen (BUN). Ca, P, AST, ALT, ALP, CREA, and BUN were purchased from Wako Pure Chemical, Japan; Glu,TC, TG, TBIL, and TBA were purchased from Kehua Bio-engineering Co.LTD, China. Routine blood biochemical markers were examined with a Hitachi chemistry automated analyzer (Hitachi 7020, Japan) according to manufacturer’s instruction.
# OVX mice [4] = test: Splenic lymphocyte transformation test; format: in vivo, mouse; set-up: key: OD (MTT) of stimulated minus unstimulated cells; details: OVX mice + S3-15 4 weeks, individual animals
# Experimental: Spleens were aseptically isolated from sham group, OVX group and OVX treatment group after treating S3-15 for 4 weeks in a clean bench (II Class biosafety Cabinets, Escolifesciences, Singapore). Splenic single cell suspensions were obtained by gentle squeezing spleen tissue by injecting 2 mL cold Hank’s solution. Splenic cells were filtered through 40 μm nylon filters (BD Biosciences, Darmstadt, Germany), and centrifuged at 1400 × g for 10 min. Then cells were resuspended in 1640 completed medium (containing 10%FBS, 1% penicillin/streptomycin, 1% glutamine (200 mmol/L) and 5 × 10^−5 mol/L 2-mercaptoethanol) with a concentration of 5 × 10^6 cells/mL and seeded 100 μL into 96-well plates. Two wells for each mouse, and one well stimulated with 50 μL […] (Sigma-Aldrich®, Germany) solution (working concentration 7.5 μg/mL in 1640 completed medium), another well added 50 μL 1640 complete medium as a control. After that, the plates were incubated at 37 °C in a CO2 incubator at 5% CO2 for 72 h. After stimulation, cells were measured by MTT method. Stimulation of cell proliferation ability was determined as the absorbance (OD) value of stimulated minus unstimulated cells for each cell sample.
# OVX mice [5] = test: Histological examination of femur (TRAP staining); format: in vivo, mouse
# Experimental: The mice left femur was fixed in paraformaldehyde for 72 h, demineralized using 10% Ethylenediamine tetra-acetic acid (EDTA-2Na) for 3 weeks, and then dehydrated with ethanol, clarified with xylene, and embedded with paraffin. Paraffin embedded tissue was sectioned on a rotary microtome. The sectioned tissues were stained with TRAP.
# [6] = serum, OVX rats, individual animals
compound,measurement,setting,value
CC(=O)/C(=N\Nc1ccccc1C(=O)O)C(=O)Nc1ccccn1 [S3-15],"luciferase activity (fig. S3g, taken as NF-κB)",NF-κB; IL-1β stimulated + S3-15,748200 and 847300 and 792000
same,"luciferase activity (fig. S3g, taken as NF-κB)",NF-κB; LPS stimulated + S3-15,375600 and 397200 and 396100
same,"luciferase activity (fig. S3g, taken as NF-κB)",NF-κB; TNF-α stimulated + S3-15,61380 and 70860 and 74440
same,NF-κB luciferase expression (fig. 6c),NF-κB; S3-15 conc. 0.08,32.0377 and 29.8492 and 26.4557
same,NF-κB luciferase expression (fig. 6c),NF-κB; S3-15 conc. 0.28,25.9787 and 28.8312 and 30.4836
same,NF-κB luciferase expression (fig. 6c),NF-κB; S3-15 conc. 0.92,26.259 and 24.0852 and 28.8361
same,NF-κB luciferase expression (fig. 6c),NF-κB; S3-15 conc. 3.03,25.0885 and 25.1918 and 25.4328
same,NF-κB luciferase expression (fig. 6c),NF-κB; S3-15 conc. 10,23.5738 and 23.8492 and 23.6426
same,NF-κB luciferase expression (fig. 6c),NF-κB; S3-15 conc. 33,17.4311 and 18.5918 and 15.8918
same,reporter signal (fig. S3h),NF-κB; stimulus IL-1β,348400 and 323800 and 307900
same,reporter signal (fig. S3h),NF-κB; stimulus LPS,720100 and 801600 and 826800
same,reporter signal (fig. S3h),NF-κB; stimulus TNF-α,62390 and 81670 and 85200
same,"TNF-α, IL-β and LPS activated NF-κB",NF-κB; without RANKL,cannot affect
same,osteoclastogenesis when incubated with Q238A sRANKL,[1]; Q238A sRANKL,cannot block osteoclastogenesis
same,Number of OCs,"[1]; Q238A sRANKL 100 ng/mL, S3-15 0.3 μM",268 and 278 and 265
same,Number of OCs,"[1]; Q238A sRANKL 100 ng/mL, S3-15 3 μM",250 and 279 and 269
same,Number of OCs,"[1]; Q238A sRANKL 100 ng/mL, S3-15 10 μM",265 and 279 and 270
same,Number of OCs,"[1]; WT RANKL 100 ng/mL, S3-15 0.3 μM",142 and 135 and 149
same,Number of OCs,"[1]; WT RANKL 100 ng/mL, S3-15 3 μM",35 and 57 and 40
same,OC numbers,[2]; H226A RANKL 0 ng/mL,36 and 29
same,OC numbers,[2]; H226A RANKL 50 ng/mL,173 and 156 and 170
same,OC numbers,[2]; H226A RANKL 200 ng/mL,113 and 121 and 125
same,osteoclast formation (fig. S4b),[2]; W194A RANKL 0 ng/mL,34 and 49 and 27
same,osteoclast formation (fig. S4b),[2]; W194A RANKL 50 ng/mL,147 and 144 and 140
same,osteoclast formation (fig. S4b),[2]; W194A RANKL 200 ng/mL,145 and 199 and 158
same,osteoclast formation (fig. S4b),[2]; W194A RANKL 400 ng/mL,119 and 118 and 97
same,Femur ultimate load,OVX mice [3],16.2764 N and 16.6572 N and 19.3534 N and 19.5584 N and 18.4846 N and 18.452 N and 16.2074 N and 13.318 N
same,organ toxicity / routine blood examination,"OVX rats; rats, 12 weeks treatment",no organ toxicity in vivo
same,ALP,OVX rats; [6],35 and 77 and 34 and 39 and 60 and 23 and 42 and 48 and 49
same,ALT,OVX rats; [6],29 and 34 and 37 and 33 and 38 and 25 and 28 and 32 and 39
same,AST,OVX rats; [6],82 and 90 and 88 and 109 and 96 and 114 and 85 and 87 and 95
same,BUN,OVX rats; [6],5.99 and 5.28 and 6.41 and 6.31 and 5.6 and 5.72 and 5.71 and 5.18 and 6
same,CREA,OVX rats; [6],58.7 and 57.9 and 57 and 66.1 and 49.8 and 56.6 and 56.8 and 65.7 and 60.7
same,Ca,OVX rats; [6],2.46 and 2.39 and 2.41 and 2.43 and 2.15 and 2.33 and 2.34
same,GLU,OVX rats; [6],10.2096 and 9.028 and 12.7431 and 8.981 and 13.9764 and 7.763 and 10.2611 and 9.122 and 11.2914
same,TBA,OVX rats; [6],26.48 and 20.71 and 36.69 and 15.65 and 15.57 and 21.76 and 21.4 and 18.86 and 18.33
same,TBIL,OVX rats; [6],1.84 and 1.07 and 1.06 and 1.28 and 0.95 and 0.98 and 0.77 and 0.97 and 0.78
same,TC,OVX rats; [6],2.99 and 2.55 and 2.35 and 2.13 and 2.5 and 2.24 and 2.36 and 2.45
same,TG,OVX rats; [6],1.05 and 0.75 and 0.49 and 0.31 and 0.47 and 0.65 and 0.46 and 0.64
same,Spleen lymphocyte transforming index,OVX mice [4],0.337 and 0.404 and 0.3367 and 0.4323 and 0.2993 and 0.3783 and 0.2337 and 0.316
same,"numbers of osteoclast, histology",OVX mice [5],significantly decreased the numbers of osteoclast
